This note sets out measurements from article PMC12429925 (Molecules, 2025).

Like-named read-outs stand apart in the source and are kept apart here. Some results are limits rather than exact numbers.

What all share (assay): cells
Format in all cases: cell-based

The subject of test [1] is MCF7 (breast carcinoma) cells. As to conditions: Homo sapiens.
In test [2] the test system is A2780 (human ovarian carcinoma) cells. To be noted: for IC50: Homo sapiens.
In test [3] the test system is panel of five different human tumor cell lines. As to conditions: read-out: IC50 range over tumor cell lines.
Test [4] has as its system CCD18Co (non-malignant human fibroblasts). To be noted: CCD-18Co.
Test [5] relates to A2780cis (ovarian carcinoma) cells. To be noted: Homo sapiens.
Test [6] concerns HT29 (colorectal carcinoma) cells. To be noted: Homo sapiens.
The subject of test [7] is A549 (lung carcinoma) cells. As to conditions: Homo sapiens.
The mark [8] stands for this setting: MCF7, 72 h, read-out: IC50 MCF7.
[9] abbreviates: A2780, 72 h, read-out: IC50 A2780.
Where [10] appears, read: HT-29, 72 h, read-out: IC50 HT29.
Setting [11] is: A549, 72 h, read-out: IC50 A549.

On to `COc1cc(CNC(=O)CCCCC=CC(C)C)ccc1O` [A, 8-methyl-N-vanillyl-6-nonenamide, reference compound], for which the IC50 in test [1] (setting [8]) is 42.1 µM; in test [1] (MCF7, read-out: IC50 MCF7, converted into μg/mL) it was 12.9 µg/mL; in test [2] (setting [9]) it was 15.9 µM; in test [2] (A2780, read-out: IC50 A2780, converted into μg/mL) it was ~4.86 µg/mL; in test [3] it was 15 to 84 µM; in test [4] (72 h, read-out: IC50 CCD18Co), > 100 µM. Moreover, the IC50 in test [4] (read-out: IC50 CCD18Co, converted into μg/mL) is > 30.5 µg/mL; in test [5] (72 h, read-out: IC50 A2780cis), 84.3 µM; in test [5] (read-out: IC50 A2780cis, converted into μg/mL) it was 25.8 µg/mL; in test [6] (setting [10]) it was 51 µM; in test [6] (HT-29, read-out: IC50 HT29, converted into μg/mL), 15.6 µg/mL; in test [7] (setting [11]), 70.3 µM. In addition, in test [7] (A549, read-out: IC50 A549, converted into μg/mL), the IC50 came to 21.5 µg/mL. For the same compound, the “Selectivity index SI (IC50 CCD18Co/IC50 A2780)” value in test [2] is given as >6.3.

As for `CCCCCCCCCCCC(=O)NCc1ccc(O)c(OC)c1` [Compound 15, N-[(4-Hydroxy-3-methoxy)benzyl]dodecanamide], the IC50 in test [2] (setting [9]) is < 10 µM.

Consider `CCCCCCCCCCCCC(=O)NCc1ccc(O)c(OC)c1` [Compound 17, N-[(4-Hydroxy-3-methoxy)benzyl]tridecanamide], for which the IC50 in test [2] (setting [9]) was < 10 µM.

Take `CCCCCCCCCCCCCC(=O)NCc1ccc(O)c(OC)c1` [Compound 19, N-[(4-Hydroxy-3-methoxy)benzyl]tetradecanamide]: in test [2] (setting [9]), the IC50 was < 10 µM.

For the compound `CCCCCCCCCCCCCCC(=O)NCc1ccc(O)c(OC)c1` [Compound 21, N-[(4-Hydroxy-3-methoxy)benzyl]pentadecanamide], the IC50 in test [2] (setting [9]) is < 10 µM.

`CCCCCCCCCCCCCCCCC(=O)NCc1ccc(O)c(OC)c1` [Compound 25, N-[(4-Hydroxy-3-methoxy)benzyl]heptadecanamide]: the IC50 in test [1] (setting [8]) was 38.4 µM; in test [4] (72 h, read-out: IC50 CCD18Co), > 100 µM; in test [5] (72 h, read-out: IC50 A2780cis) it was > 100 µM; in test [6] (setting [10]) it was 78.5 µM; in test [7] (setting [11]) it was 60.5 µM.

On to `CCCCCCCCCCCCCCCCCC(=O)NCc1ccc(O)c(OC)c1` [Compound 27, N-[(4-Hydroxy-3-methoxy)benzyl]octadecanamide], for which the IC50 is 32.6 µM in test [1] (setting [8]); > 100 µM in test [4] (72 h, read-out: IC50 CCD18Co); 76.4 µM in test [5] (72 h, read-out: IC50 A2780cis); 42.4 µM in test [6] (setting [10]); 50.3 µM in test [7] (setting [11]). Besides, the “Selectivity index SI (IC50 CCD18Co/IC50 A2780)” value in test [2] is reported as >29.0.

With `CCCCCCCCCCCCCCCCCCC(=O)NCc1ccc(O)c(OC)c1` [Compound 29, N-[(4-Hydroxy-3-methoxy)benzyl]nonadecanamide], the IC50 in test [1] (setting [8]) is 15.9 µM; in test [4] (72 h, read-out: IC50 CCD18Co) it was > 100 µM; in test [5] (72 h, read-out: IC50 A2780cis), 59.5 µM; in test [6] (setting [10]) it was 68.4 µM; in test [7] (setting [11]), 55.3 µM.
